16 molecules from ChEMBL document CHEMBL5365473, “Novel Sulfonylurea-Based NLRP3 Inflammasome Inhibitor for Efficient Treatment of Nonalcoholic Steatohepatitis, Endotoxic Shock, and Colitis” (J Med Chem, 2023) can be followed below.

The assay deals with NACHT, LRR and PYD domains-containing protein 3 (Mus musculus, UniProt Q8R4B8). Put plainly: Inhibition of NLRP3 inflammasome in mouse […] cells assessed as inhibition of LPS/ATP-induced IL-1 beta secretion primed with LPS for 4.5 hs followed by incubation with compound for 30 mins and later stimulation with ATP for 30 mins by ELISA. In kind it is cell-based, J774.A1. (In general: An ELISA detects its analyte on a solid surface through an enzyme-linked reagent.)
Chain of NACHT, LRR and PYD domains-containing protein 3 (Q8R4B8 whole entry, the tested form may be a part): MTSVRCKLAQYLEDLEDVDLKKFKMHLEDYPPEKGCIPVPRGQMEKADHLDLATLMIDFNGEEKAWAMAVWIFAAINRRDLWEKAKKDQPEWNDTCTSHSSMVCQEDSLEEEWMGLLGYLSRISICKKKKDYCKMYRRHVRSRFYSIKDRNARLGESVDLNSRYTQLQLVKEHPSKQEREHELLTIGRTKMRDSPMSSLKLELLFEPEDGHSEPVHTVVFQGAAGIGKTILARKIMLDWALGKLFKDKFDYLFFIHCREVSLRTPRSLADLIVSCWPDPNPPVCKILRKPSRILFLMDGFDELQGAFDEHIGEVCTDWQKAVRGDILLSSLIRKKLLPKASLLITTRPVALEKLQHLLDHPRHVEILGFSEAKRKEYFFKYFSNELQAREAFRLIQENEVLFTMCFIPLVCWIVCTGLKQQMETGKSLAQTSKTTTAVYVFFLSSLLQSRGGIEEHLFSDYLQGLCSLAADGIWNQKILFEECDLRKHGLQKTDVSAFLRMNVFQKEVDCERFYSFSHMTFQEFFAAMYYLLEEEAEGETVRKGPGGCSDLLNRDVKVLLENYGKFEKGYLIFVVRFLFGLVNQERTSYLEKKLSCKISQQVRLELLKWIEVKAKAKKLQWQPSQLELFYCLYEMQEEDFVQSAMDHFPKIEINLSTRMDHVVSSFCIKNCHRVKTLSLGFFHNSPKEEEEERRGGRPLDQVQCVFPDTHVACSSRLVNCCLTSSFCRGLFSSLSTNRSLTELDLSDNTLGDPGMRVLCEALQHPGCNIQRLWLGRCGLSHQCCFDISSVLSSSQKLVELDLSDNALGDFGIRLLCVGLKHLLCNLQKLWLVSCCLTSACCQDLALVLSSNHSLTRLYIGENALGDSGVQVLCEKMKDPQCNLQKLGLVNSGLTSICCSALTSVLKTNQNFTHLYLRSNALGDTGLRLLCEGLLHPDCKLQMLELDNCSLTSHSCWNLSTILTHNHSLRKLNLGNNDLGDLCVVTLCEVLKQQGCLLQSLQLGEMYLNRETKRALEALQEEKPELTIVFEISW

In general, IC50 refers to the concentration that gives 50% inhibition. Turning to `CN1CCN(Cc2ccc(S(=O)(=O)NC(=O)Nc3c4c(cc5c3CCC5)CCC4)cc2)CC1`, the IC50 was more than 10000 nM.

With `CN(C)Cc1ccc(S(=O)(=O)NC(=O)Nc2c(-c3ccccc3)cccc2-c2ccccc2)cc1`, the IC50 turned out to be 1480 nM.

Regarding `CC(C)(C)OC(=O)N1CC=C(c2c3c(c(NC(=O)NS(=O)(=O)c4cc(C(C)(C)O)co4)c4c2CCC4)CCC3)CC1`, the IC50 was more than 5000 nM.

With `CCCCCN(C)Cc1ccc(S(=O)(=O)NC(=O)Nc2c3c(cc4c2CCC4)CCC3)cc1`, the IC50 worked out at 1730 nM.

In the case of `CCN(C)Cc1ccc(S(=O)(=O)NC(=O)Nc2c3c(cc4c2CCC4)CCC3)cc1`, the IC50 amounted to 63 nM.

For the molecule `CN(C)c1ccc(-c2c3c(c(NC(=O)NS(=O)(=O)c4cc(C(C)(C)O)co4)c4c2CCC4)CCC3)cc1`, the IC50 is more than 5000 nM.

As for `CC(C)(O)c1coc(S(=O)(=O)NC(=O)Nc2c3c(c(-c4ccc(C=O)cc4)c4c2CCC4)CCC3)c1`, the IC50 was more than 5000 nM.

For the molecule `CN(C)Cc1cc(F)cc(S(=O)(=O)NC(=O)Nc2c3c(cc4c2CCC4)CCC3)c1`, the IC50 turned out to be 722 nM.

Take `CC(C)(O)c1cccc(S(=O)(=O)NC(=O)Nc2c3c(cc4c2CCC4)CCC3)c1`: the IC50 is more than 20000 nM.

On to `CC(C)c1cccc(C(C)C)c1NC(=O)NS(=O)(=O)c1ccc(CN(C)C)cc1`, for which the IC50 is 138 nM.

`CN(C)C(=O)c1cccc(S(=O)(=O)NC(=O)Nc2c3c(cc4c2CCC4)CCC3)c1`: the IC50 was 691 nM.

`CC(C)c1cccc(C(C)C)c1CC(=O)NS(=O)(=O)c1ccc(CN(C)C)cc1`: the IC50 is 1860 nM.

For `CC(C)(C)OC(=O)Nc1ccc(-c2c3c(c(NC(=O)NS(=O)(=O)c4cc(C(C)(C)O)co4)c4c2CCC4)CCC3)cc1`, the IC50 is more than 5000 nM.

As to `O=C(Nc1c2c(cc3c1CCC3)CCC2)NS(=O)(=O)c1ccc(CN2CCCCC2)cc1`, the IC50 amounted to 1250 nM.

On to `COC1CN(Cc2cccc(S(=O)(=O)NC(=O)Nc3c4c(cc5c3CCC5)CCC4)c2)C1`, for which the IC50 came to 5000 nM.

Take `O=C(Nc1c2c(cc3c1CCC3)CCC2)NS(=O)(=O)c1ccc(CN2CCOCC2)cc1`: the IC50 is 3690 nM.
